In PMC4453511 (mBio, 2015):

Molecular target: Rv1026/PPX2 (6×His-Rv1026) (Mycobacterium tuberculosis, UniProt P96374)
Sequence (P96374 whole entry): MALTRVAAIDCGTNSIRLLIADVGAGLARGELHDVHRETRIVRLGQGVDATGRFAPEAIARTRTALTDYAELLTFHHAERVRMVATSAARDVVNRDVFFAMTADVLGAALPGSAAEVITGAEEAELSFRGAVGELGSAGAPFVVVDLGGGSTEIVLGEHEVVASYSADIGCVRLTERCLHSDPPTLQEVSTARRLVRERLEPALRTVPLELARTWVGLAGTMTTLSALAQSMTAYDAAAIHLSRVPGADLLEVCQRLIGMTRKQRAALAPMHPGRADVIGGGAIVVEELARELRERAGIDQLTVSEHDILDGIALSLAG

Structure (SMILES) | DAPI-based poly(P) hydrolysis assay
Nc1ncnc2c1ncn2[C@@H]1O[C@H](COP(=O)(O)OP(=O)(O)O)[C@@H](O)[C@H]1O [ADP] | accelerated when recombinant protein was incubated with AMP/ADP and GMP/GDP
Nc1ncnc2c1ncn2[C@@H]1O[C@H](COP(=O)(O)O)[C@@H](O)[C@H]1O [AMP] | accelerated when recombinant protein was incubated with AMP/ADP and GMP/GDP
Nc1nc2c(ncn2[C@@H]2O[C@H](COP(=O)(O)OP(=O)(O)O)[C@@H](O)[C@H]2O)c(=O)[nH]1 [GDP] | accelerated when recombinant protein was incubated with AMP/ADP and GMP/GDP
Nc1nc2c(ncn2[C@@H]2O[C@H](COP(=O)(O)O)[C@@H](O)[C@H]2O)c(=O)[nH]1 [GMP] | accelerated when recombinant protein was incubated with AMP/ADP and GMP/GDP
